Assay results from patent US20240300886A1, “ARYLCYCLOHEXYLAMINE DERIVATIVES AND THEIR USE IN THE TREATMENT OF PSYCHIATRIC DISORDERS” (GILGAMESH PHARMACEUTICALS, INC., priority 2021, published 2024).
Like-named read-outs stand apart in the source and are kept apart here.

What was measured:
[1] = Oral bioavailability in rats, Method A (plasma PK); format: in vivo, Sprague Dawley rats; settings: rat plasma
Description: Animals. Male Sprague Dawley rats were used in these studies. Animals were randomly assigned to treatment groups and were fasted for 4 h before dosing.
Drugs. Test compounds were dissolved in normal saline and administered intravenously (iv) or orally (po) at a dose of 10 mg/kg (calculated based on freebase) and at a volume of 5 mL/kg body weight. Compounds were tested as the racemates or pure enantiomers, as indicated.
Sample Collection and Bioanalysis. Blood samples were collected under 2,2,2-tribromoethanol anesthesia (150 mg/kg, ip) from the orbital sinus at 0.083, 0.25, 0.5, 1, 2, 4, 8 and 24 h (4 animals per time point) into microcontainers containing K2EDTA. Immediately after collection of blood, rats were euthanized by […]. All samples were immediately processed, flash-frozen, and stored at −70° C. until subsequent analysis. Plasma samples were separated by centrifugation of whole blood and aliquots (50 μL) were mixed with 200 μL of internal standard solution (400 ng/mL in 1:1 v/v CH3CN:MeOH). After mixing by pipetting and centrifuging for 4 min at 6,000 rpm, 0.5 μL of each supernatant was analyzed for drug using a fit-for-purpose liquid chromatography-tandem mass spectrometry (LC-MS/MS) method, with authentic samples of each analyte used for calibration and identification.
Data Analysis. The drug concentrations of samples below the lower limit of quantitation (LLOQ) were designated as zero. Pharmacokinetic data analysis was performed using noncompartmental, bolus injection or extravascular input analysis models in WinNonlin 5.2 (PharSight). Data points below LLOQ were presented as missing to improve validity of t1/2 calculations.

[2] = Oral bioavailability in minipigs (plasma PK); format: in vivo, Bama minipigs; settings: for AUC(0-inf): male, Bama
Description: Animals. Male Bama minipigs were used in these studies. Animals were randomly assigned to treatment groups and were fasted overnight before dosing.
Drugs. Compound 2R was dissolved in a vehicle consisting of normal saline. It was then administered intravenously (iv) or orally (po) at a dose of 1 mg/kg (calculated based on freebase) and at a volume of 2 mL/kg body weight (n=3 per dosing route).
Sample Collection and Bioanalysis. Blood samples (approximately 500 μL) were collected under manual restraint from the cephalic vein at 0.08, 0.25, 0.5, 1, 2, 4, 8, and 24 h ([…]) into K2EDTA tubes and placed on wet ice. Immediately after blood collection, plasma was harvested by centrifugation at 3,000 g for 5 min at 4° C. within 15 minutes of collection and subsequently stored at −70±10° C. until bioanalysis. For bioanalysis, for diluted plasma samples, an aliquot of 2 μL sample was diluted with 18 μL blank matrix and the dilution factor was 10. For non-diluted samples, an aliquot of 20 μL sample was added with 300 μL internal standard (diclofenac, 60 ng/mL) in acetonitrile. The mixture was vortexed for 10 minutes and centrifuged at 5,800 rpm for 10 minutes. 90 μL of supernatant was transferred to a 96 well plate and analyzed with a fit-for-purpose LC-MS/MS method, with authentic samples of each analyte used for calibration and identification.
Data Analysis. Pharmacokinetic parameters were estimated using the non-compartmental analysis tool of Phoenix® WinNonlin software (Ver 8.2).

[3] = Stability in liver microsomes (Example 21), CD-1 mouse; format: in vitro ADME; settings: male, pH 7.4, CD-1 Mouse liver microsomes, 0.5 mg/mL protein
Description: General Procedure. Briefly, test compounds (final concentration 1 μM) were incubated in duplicate with liver microsomes from male animals of the indicated species (final protein concentration 0.5 mg/mL) in 50 mM sodium phosphate buffer (pH 7.4) with or without NADPH (1 mM). Total incubation volume was 500 μL. At 0, 5, 15, 30, and 60 min, aliquots of 50 μL were withdrawn, quenched with acetonitrile (150 μL), and analyzed for parent compound remaining using a fit-for-purpose LC-MS/MS method. Intrinsic clearance and half-life were calculated. Clearance values below zero were rounded to zero.

CNC1(c2ccccc2Cl)CCCCC1=O (racemic) [racemic ketamine, ketamine]
AUC(0-inf) ([1]; male, Sprague Dawley, 10 mg/kg iv, read-out: AUC0-inf (iv) (converted)): 1.35 µg·h/mL
half-life ([1]; male, Sprague Dawley, 10 mg/kg iv, read-out: t1/2 (iv)): 41.6 min
Cmax ([1]; male, Sprague Dawley, 10 mg/kg po): 0.19 µg/mL
AUC(0-inf) ([1]; male, Sprague Dawley, 10 mg/kg po, read-out: AUC0-inf (po) (converted)): 0.125 µg·h/mL
half-life ([1]; male, Sprague Dawley, 10 mg/kg po, read-out: t1/2 (po)): 33.7 min
F ([1]; 10 mg/kg): 9.07%

CN[C@@]1(c2ccc(F)cc2)CCCCC1=O [Compound 2R, (R)-2-(4-fluorophenyl)-2(methylamino)cyclohexan-1-one]
AUC(0-inf) ([2]; minipig plasma, 1 mg/kg iv, read-out: AUC0-inf (iv) (converted)): 0.566 µg·h/mL
AUC(0-inf) ([2]; minipig plasma, 1 mg/kg po, read-out: AUC0-inf (po) (converted)): 0.242 µg·h/mL
F ([2]; minipig plasma, 1 mg/kg): 42.7%
oral bioavailability (in words) ([2]; minipigs, 1 mg/kg): good

CN[C@]1(c2ccc(F)cc2)CCCCC1=O [Compound 2S, (S)-2-(4-fluorophenyl)-2-(methylamino)cyclohexan-1-one]
microsomal CLint at 1 μM [3]: 3.5 µL/min/mg
